Test results published in ChEMBL document CHEMBL4330129 (Bioorg Med Chem, 2019).
Values after ≈ are worked out from the molar mass of the structure shown.

Tests used:
[1] = Binding affinity to FLAG/His-tagged Keap1 (unknown origin)/biotinylated full-length FLAG/His/Tev/Avi-tagged Cul3 (unknown origin) expressed in baculovirus infected Sf9 insect cells measured after 1 hr by TR-FRET assay; design: species or system Homo sapiens
[2] = target: Keap1/Nrf2 (Homo sapiens, UniProt Q14145+Q16236); test: Binding affinity to FLAG/His-tagged Keap1 (unknown origin)/biotinylated full-length FLAG/His/Tev/Avi-tagged NRF2 (unknown origin) expressed in baculovirus infected Sf9 insect cells measured after 1 hr by TR-FRET assay
[3] = organism: Homo sapiens; test: Activation of Keap1/Cul3/Nrf2 in NHBE cells assessed as induction of HO-1 gene expression at 10 uM after 24 hrs by RT-PCR analysis relative to SFN; type: cell-based
[4] = Kinetic solubility of the compound at pH 7.4 by CLND method; type: physicochemical; details: buffer, read-out: Kinetic_solubility
[5] = Lipophilicity, log D of the compound at pH 7.4 by chromatographic method; type: physicochemical; details: buffer
[6] = Activation of Keap1/Cul3/Nrf2 in human BEAS2B cells assessed as increase in NQO1 levels measured after 48 hrs; type: cell-based; details: BEAS-2B

Chain of Keap1/Nrf2 (Q16236 whole entry): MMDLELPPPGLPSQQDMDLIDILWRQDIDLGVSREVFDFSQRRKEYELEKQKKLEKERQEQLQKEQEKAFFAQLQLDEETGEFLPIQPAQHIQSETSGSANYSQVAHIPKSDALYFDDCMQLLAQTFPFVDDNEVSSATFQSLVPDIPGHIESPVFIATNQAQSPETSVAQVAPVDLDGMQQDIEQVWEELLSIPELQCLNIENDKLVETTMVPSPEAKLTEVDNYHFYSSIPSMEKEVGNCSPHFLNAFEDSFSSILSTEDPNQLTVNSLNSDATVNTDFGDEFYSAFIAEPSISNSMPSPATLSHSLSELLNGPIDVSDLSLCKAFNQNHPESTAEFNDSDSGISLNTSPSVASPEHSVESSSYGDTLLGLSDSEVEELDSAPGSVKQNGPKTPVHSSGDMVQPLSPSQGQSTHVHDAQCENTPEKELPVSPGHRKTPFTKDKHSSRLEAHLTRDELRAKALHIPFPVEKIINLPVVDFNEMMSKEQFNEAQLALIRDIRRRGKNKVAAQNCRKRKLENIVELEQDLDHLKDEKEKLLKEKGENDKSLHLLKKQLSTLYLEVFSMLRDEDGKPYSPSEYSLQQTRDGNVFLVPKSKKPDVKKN
Chain of Keap1/Nrf2 (Q14145 whole entry): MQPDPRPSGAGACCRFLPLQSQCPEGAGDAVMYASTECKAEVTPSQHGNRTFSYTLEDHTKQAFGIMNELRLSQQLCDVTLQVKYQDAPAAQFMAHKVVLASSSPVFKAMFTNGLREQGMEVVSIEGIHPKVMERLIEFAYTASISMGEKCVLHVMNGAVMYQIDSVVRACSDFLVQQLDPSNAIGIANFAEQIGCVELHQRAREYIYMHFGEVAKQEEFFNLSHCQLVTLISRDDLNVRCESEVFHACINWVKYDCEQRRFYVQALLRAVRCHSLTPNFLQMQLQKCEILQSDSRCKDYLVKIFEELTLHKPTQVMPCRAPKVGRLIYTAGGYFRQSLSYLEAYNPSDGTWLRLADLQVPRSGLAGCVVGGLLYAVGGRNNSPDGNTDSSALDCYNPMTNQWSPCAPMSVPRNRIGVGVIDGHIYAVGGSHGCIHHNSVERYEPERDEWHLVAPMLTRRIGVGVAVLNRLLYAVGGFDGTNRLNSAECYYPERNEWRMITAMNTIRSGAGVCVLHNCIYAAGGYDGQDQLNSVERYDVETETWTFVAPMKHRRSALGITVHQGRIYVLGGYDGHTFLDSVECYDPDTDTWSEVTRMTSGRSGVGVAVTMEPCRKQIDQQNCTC

SMILES | IC50 [2] | solubility kinetic [4] | chromatographic logD [5] | EC50 [6] | pIC50 [1] | fold change (FC) [3]
CN(C)CCCS(=O)(=O)CCCCN=C=S | > 100 µM | 210 µM (≈ 55.5 µg/mL) | 1.55 |  | < 4 | 0.34
O=S1(=O)CCN(CCN=C=S)CC1 | > 100 µM | ≥ 274 µM | 2.33 |  | < 4 | 0.19
O=C(NCCCCN=C=S)Nc1cccnc1 | 39.8 µM | ≥ 428 µM | 2.79 |  | 4.5 | 13.6
O=S1(=O)CCC(CN=C=S)C1 (configuration not stated) | > 100 µM | ≥ 639 µM | 1.82 |  | 4.4 | 0.37
O=C(NCCCCN=C=S)Nc1ccncc1 | 31.6 µM | 400 µM (≈ 100 µg/mL) | 2.6 |  | 4.7 | 15.3
COC(=O)[C@]12CCC(C)(C)C[C@H]1[C@H]1C(=O)C=C3[C@@]4(C)C=C(C#N)C(=O)C(C)(C)[C@@H]4CC[C@@]3(C)[C@]1(C)CC2 [BARDOXOLONE METHYL] |  |  |  | 0.00871 µM |  | 
O=C(NCCCCN=C=S)OCc1ccncc1 | 39.8 µM | 354 µM (≈ 93.9 µg/mL) | 3.5 |  | 4.6 | 13.3
O=C(NCCCCN=C=S)Nc1ccc2nccnc2c1 | 15.8 µM | ≥ 356 µM | 3.13 |  | 5.1 | 13.2
CN1CCC(SC(=S)NCCCCNC(=O)Oc2ccccc2)CC1 | 25.1 µM | ≥ 410 µM | 0.9 |  | 4.8 | 5.52
[O-][S+](CCCCN=C=S)c1ccccc1 (configuration not stated) | 50.1 µM | 213 µM (≈ 51 µg/mL) | 4.11 |  | 4.3 | 5.99
O=C(O)C(F)(F)F.[O-][S+](CCCCN=C=S)CCN1CCOCC1 (configuration not stated) | > 100 µM | 81 µM | 1.91 |  | < 4 | 0.16
[O-][S+](CCCCN=C=S)c1ccccn1 (configuration not stated) | 31.6 µM | ≥ 372 µM | 3.16 |  | 4.2 | 1.17
O=S(=O)(CC1(N2CCC(CN=C=S)CC2)COC1)c1ccccc1 | 39.8 µM | 341 µM (≈ 125 µg/mL) | 5.41 |  | 4.7 | 2.98
CC(=O)CCCCN=C=S | > 100 µM | 206 µM (≈ 32.4 µg/mL) | 4.21 |  | 4.1 | 0.9
[O-][S+](CCCCN=C=S)c1ccncc1 (configuration not stated) | 15.8 to 25.1 µM | 201 to 224 µM (≈ 48.3 to 53.8 µg/mL) | 2.34 to 3.5 |  | 4.4 | 15.8 to 15.9
CN1CCC(SC(=S)NCC2CCS(=O)(=O)C2)CC1 (configuration not stated) | > 100 µM | ≥ 331 µM | 1.03 |  | < 4 | 0.38
CS(=O)(=O)N1CCC(CN=C=S)C1 (configuration not stated) | > 100 µM | ≥ 451 µM | 3.22 |  | 4.1 | 0.68
Cn1cc(CCN=C=S)c2ccccc21 | 10 µM | 38 µM (≈ 8.22 µg/mL) | 7.23 |  | 5.2 | 0.04
CC(=O)NCCS(=O)(=O)CCCCN=C=S | > 100 µM | ≥ 422 µM | 1.8 |  | 4.2 | 0.37
O=S(=O)(CC1(N2CCC(CN=C=S)C2)COC1)c1ccccc1 (configuration not stated) | 50.1 µM | 242 µM (≈ 85.3 µg/mL) | 5.02 |  | 4.7 | 8.15
C[S+]([O-])CCCN=C=S (configuration not stated) | > 100 µM | 331 µM (≈ 54 µg/mL) | 0.85 |  | < 4 | 0.47
Cc1ccccc1[S+]([O-])CCCCN=C=S (configuration not stated) | 63.1 µM | 362 µM (≈ 91.7 µg/mL) | 4.69 |  | 4.6 | 1.3
O=S(=O)(CC1(c2ccc(N=C=S)cc2)COC1)c1ccccc1 | 39.8 µM | 9 µM (≈ 3.11 µg/mL) | 4.21 |  | 4.3 | 0.23

Further lines, with some results ahead:

IC50 [2] | solubility kinetic [4] | chromatographic logD [5] | EC50 [6] | SMILES | pIC50 [1] | fold change (FC) [3]
63.1 µM | 255 µM (≈ 115 µg/mL) | 3.43 |  | CCNC(=O)N1CCC(SC(=S)NCCCCNC(=O)NCc2ccccc2)CC1 | 4.4 | 81.8
> 100 µM | 9 µM (≈ 5.32 µg/mL) | 7.89 |  | CC(C)(C)OC(=O)N1CCC(SC(=O)NCCCCNC(=S)SC2CCN(C(=O)OC(C)(C)C)CC2)CC1 | < 4 | 4.08
39.8 µM | ≥ 245 µM | 2.33 |  | CN1CCC(SC(=S)NCCCCNC(=O)NC2CCCC2)CC1 | 4.5 | 19.3
50.1 µM | 419 µM (≈ 101 µg/mL) | 4.1 |  | O=C(NCCCCN=C=S)NC1CCCC1 | 4.4 | 2.66
 |  |  | 1.58 µM | CN(C)c1c(N(C)CCCNC(=S)SC[C@H](NC(=O)CC[C@H](N)C(=O)O)C(=O)NCC(=O)O)c(=O)c1=O |  | 
25.1 µM | ≥ 467 µM | 0.68 |  | C[S+]([O-])CCCCNC(=S)SCCCO (configuration not stated) | < 4 | 0.24
> 100 µM | ≥ 432 µM | 3.12 |  | C[S+]([O-])CCCCNC(=S)SCCNC(=O)OC(C)(C)C (configuration not stated) | < 4 | 0.58
> 100 µM | ≥ 219 µM | 1.47 |  | CN(C)CC[S+]([O-])CCCCN=C=S (configuration not stated) | < 4 | 0.49
> 100 µM | ≥ 180 µM | 1.09 |  | CC(=O)NCC[S+]([O-])CCCCN=C=S (configuration not stated) | < 4 | 0.15
10 µM | ≥ 400 µM | 1.52 |  | CN1CCC(SC(=S)NCCCCNC(=O)Nc2ccc3nccnc3c2)CC1 | 5.1 | 102
> 100 µM | ≥ 250 µM | 0.81 |  | CN(C)CCC[S+]([O-])CCCCN=C=S (configuration not stated) | < 4 | 0.27
10 µM | 355 µM (≈ 140 µg/mL) | 3.49 |  | CN1CCC(SC(=S)NCCCCNC(=O)OCc2ccccc2)CC1 | 5.2 | 4.67
50.1 µM | ≥ 323 µM | 1.52 |  | Cl.O=C(NCCCCNC(=S)SC1CCNCC1)NC1CCCC1 | 4.6 | 3.46
100 µM | ≥ 419 µM | 1.56 |  | CN1CCC(SC(=S)NCCCCS(=O)(=O)c2ccncc2)CC1 | 4.5 | 2
12.6 µM | 77 µM (≈ 28.8 µg/mL) | 6.72 |  | CC(C)(C)OC(=O)N1CCC(SC(=O)NCCCCN=C=S)CC1 | 5.1 | 4.01
> 100 µM | 255 µM | 0.22 |  | C[S+]([O-])CCCCNC(=S)SC1CCNCC1.O=C(O)C(F)(F)F (configuration not stated) | < 4 | 0.34
20 µM | ≥ 350 µM | 1.02 |  | CN1CCC(SC(=S)NCCCCNC(=O)Nc2ccncc2)CC1 | 4.9 | 29.8
2.51 µM | 2 µM (≈ 1.03 µg/mL) | 7.72 |  | CC(C)(C)OC(=O)N1CCC(SC(=S)NCCCCNC(=O)OCc2ccccc2Cl)CC1 | 4.8 | 40.3
50.1 µM | ≥ 256 µM | 3 |  | CN1CCC(SC(=S)NCCCCNC(=O)CC2CCCC2)CC1 | 4.5 | 31.3
15.8 µM | 42 µM (≈ 21.8 µg/mL) | 5.02 |  | CC(C)(C)OC(=O)N1CCC(SC(=S)NCCCCNC(=O)Nc2ccc3nccnc3c2)CC1 | 4.8 | 100
> 100 µM | 80 µM (≈ 38.6 µg/mL) | 5.67 |  | CC(C)(C)OC(=O)N1CCC(SC(=S)NCCCCNC(=O)OCc2ccccn2)CC1 | < 4 | 1.47
20 µM | ≥ 451 µM | 2.4 |  | CN1CCC(SC(=S)NCCCCNC(=O)NCc2ccccc2)CC1 | 4.9 | 14.5
> 100 µM | ≥ 510 µM | 1.04 |  | COC(=O)[C@H](CSC(=S)NCCCC[S+](C)[O-])NC(C)=O (some centres not stated) | < 4 | 0.85
> 100 µM | ≥ 377 µM | 4.58 |  | CNC(=O)NCCCCNC(=S)SC1CCN(C(=O)OC(C)(C)C)CC1 | < 4 | 0.59
> 100 µM | 382 µM (≈ 151 µg/mL) | 4.23 |  | C[S+]([O-])CCCCNC(=S)SC1CCN(C(=O)OC(C)(C)C)CC1 (configuration not stated) | 4.3 | 0.48
> 100 µM | ≥ 425 µM | 1.9 |  | C[S+]([O-])CCCCNC(=S)SCCSC(=S)NCCCC[S+](C)[O-] (configuration not stated) | 4.3 | 0.74
